Literature values, collected in PMC4422128, “Discovery of sea urchin NGFFFamide receptor unites a bilaterian neuropeptide family” (Open Biology, 2015).
“Also recorded” adds a separate entry of the source. Positions of bridges follow the written chain, without caps; N, C: chain ends. No end group written: not given here.

Columns and labels:
crab hearts = test system: crab hearts; set-up: method as in PMID 16593803
arthropods = settings: insects (b4)
Source text: Furthermore, the ligand that activ ... || Our discovery that the NPS/CCAP-type receptor in the sea urchin S. purpuratus is activated by the NG peptide NGFFFamide provides a basis for investigation of the physiological roles of NG peptides in deuterostomian invertebrates. This will provide new insights into the evolution of the physiological and behavioural functions of NPS/NG peptide/CCAP-type neuropeptides in the animal kingdom. Based upon what is currently known, a common theme seems to be a role in control of behaviours that are associated with a heightened state of arousal. Thus, NPS causes anxiolysis and arousal in mammals, ...

[1] = test system: NPSR-type protein in Drosophila
Source text: Furthermore, the ligand that activ ...

rodents = rodents (b3); mammals
Source text: This will provide new insights into the evolution of the physiological and behavioural functions of NPS/NG peptide/CCAP-type neuropeptides in the animal kingdom. Based upon what is currently known, a common theme seems to be a role in control of behaviours that are associated with a heightened state of arousal. Thus, NPS causes anxiolysis and arousal in mammals, ...

VRR1/GPR154 (NPSR) = test system: VRR1/GPR154 (NPSR); set-up: method as in PMID 15312648; settings: purified from brain extracts

Substance | effect on crab hearts (crab hearts) | control/activation of ecdysis (arthropods) | activation of NPSR-type protein in Drosophila [1] | physiological action of NPS: anxiety (rodents) | physiological action of NPS: arousal (rodents) | ligand activity at VRR1/GPR154, NPS (VRR1/GPR154 (NPSR))
PFCNAFTGC-NH2 (disulfide 3-9 (inferred)) [CCAP, crustacean cardioactive peptide] | excitatory effect on crab hearts | activates the ecdysis motor programme; also recorded: controls ecdysis behaviour in insects | activates the NPSR-type protein in Drosophila |  |  | 
SFRNGVGTGMKKTSFQRAKS [NPS, neuropeptide-S] |  |  |  | anxiolytic-like action; also recorded: anxiolysis | causing arousal | endogenous ligand
